Assays:
[1] = Test 3-1: metabolic stability test of human liver microsome; format: in vitro ADME; conditions: human liver microsome 0.1 mg/mL, test compound 0.1 μmol/L, 37° C., 30 minutes
Procedure: Test 3-1: Metabolic Stability Test of Human Liver Microsome
(§1) The stability of the present compounds for human liver microsome metabolism was evaluated as mentioned below. The used human liver microsome was obtained from Xenontech. Human liver microsome, NADPH, and each test compound were mixed in 25 mmol/L phosphate buffer solution (pH 7.4) to adjust each concentration as shown below, and the mixture was incubated at 37° C. for 30 minutes. • human liver microsome: 0.1 mg/mL • NAPDH: 3.2 mmol/L • test compound: 0.1 μmol/L
(§2) The residual ratio of the test compound in each sample after the incubation for 30 minutes was measured with a LC-MS, and the metabolic stability of human liver microsome was calculated about each test compound with the following formula. Metabolic stability of human liver microsome(mL/min/mg protein)=−LN(residual ratio)/“reaction time”/“concentration of human liver microsome”

[2] = Test 3-2: metabolic stability test of human liver microsome; format: in vitro ADME; conditions: human liver microsome 0.5 or 1.0 mg/mL, test compound 0.1 μmol/L, 37° C., 30 minutes
Procedure: Test 3-2: Metabolic Stability Test of Human Liver Microsome
as §1, with “In order to evaluate the metabolic stability of human liver microsomes more precisely, the stability” for “The stability”, “evaluated with a suitable concentration of human liver microsome,” for “evaluated”, “microsome: 0.5 or 1.0” for “microsome: 0.1”
as §2

[3] = tested on: Wistar male rat; assay: Test 9: microdialysis test (intracerebral monoamine release); format: in vivo; conditions: in the combination administration with sertraline or in single administration
Procedure: Test 9: Microdialysis Test
The effect of the present compound for the release amount of intracerebral monoamine was evaluated in a manner mentioned below.
8-Week-old Wistar male rat was fixed on a brain stereotaxic apparatus under anesthesia. The scalp was incised, the subcutaneous tissue was removed, the position of the bregma was measured, and the installation position of a guide cannula was calculated (the position of the orbitofrontal cortex which defined according to the brain stereotaxic coordinates of Paxinos & Watson (2.0 mm right, 4.2 mm anterior from bregma)). The skull was drilled with a dental drill at the installation position of the guide cannula, and an anchor screw was set about 1 cm posterior to the hole. The guide cannula was set and fixed with a dental cement, and then the scalp was sutured. The animal was released from the brain stereotaxic apparatus, and was moved back to the breeding cage. In the event of the test, the rat was put in an acrylic observable cage, and a dialysis probe was inserted along the guide cannula to connect to a free-moving tube. With an infusion pump, Ringer solution was perfused at 2 μL/min, and the dialysis solution was recovered at 20-minute intervals. […] The recovered dialysis solutions were analyzed with a HPLC-ECD system to determine the contents of norepinephrine (NE), dopamine (DA), and serotonin (5-HT).

[4] = target: T1, human 5-HT1A receptor (Homo sapiens (Human), UniProt P08908); assay: Test 1: agonistic activity for human 5-HT1A receptor (aequorin luminescence, CHO-K1); format: cell-based; conditions: for EC50: CHO-K1 cell transiently expressing aequorin, Ga16 and receptor
T1 sequence (P08908 whole entry): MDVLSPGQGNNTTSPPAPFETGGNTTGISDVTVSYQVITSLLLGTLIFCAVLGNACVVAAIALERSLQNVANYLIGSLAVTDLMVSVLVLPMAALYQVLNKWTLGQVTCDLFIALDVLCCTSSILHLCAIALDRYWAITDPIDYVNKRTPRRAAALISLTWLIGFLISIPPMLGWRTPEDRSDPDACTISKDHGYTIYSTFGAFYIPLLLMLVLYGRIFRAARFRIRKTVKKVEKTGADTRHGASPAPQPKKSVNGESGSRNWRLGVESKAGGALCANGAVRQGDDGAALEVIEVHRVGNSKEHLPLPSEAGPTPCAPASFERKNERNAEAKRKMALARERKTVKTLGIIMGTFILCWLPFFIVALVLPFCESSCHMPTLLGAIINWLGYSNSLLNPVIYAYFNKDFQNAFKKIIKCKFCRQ
Procedure: (§3) Test 1: Evaluation of Agonistic Activity for Human 5-HT1A Receptor and Human D4 Receptor
(§4) Aequorin, Ga16 proteins, and each receptor were transiently expressed in CHO-K1 cell (Chinese hamster ovary), and seeded to 384-well plate. The plate was incubated in a CO2 incubator at 37° C. for 24 hours. Each example compound dissolved in DMSO was added thereto, and the change of luminescence amount was measured with Hamamatsu FDSS/μCELL System (Hamamatsu Photonics).

[5] = target: T2, human D4 receptor (Homo sapiens (Human), UniProt P21917); assay: Test 1: agonistic activity for human D4 receptor (aequorin luminescence, CHO-K1); format: cell-based; conditions: for EC50: CHO-K1 cell transiently expressing aequorin, Ga16 and receptor
T2 sequence (P21917 whole entry): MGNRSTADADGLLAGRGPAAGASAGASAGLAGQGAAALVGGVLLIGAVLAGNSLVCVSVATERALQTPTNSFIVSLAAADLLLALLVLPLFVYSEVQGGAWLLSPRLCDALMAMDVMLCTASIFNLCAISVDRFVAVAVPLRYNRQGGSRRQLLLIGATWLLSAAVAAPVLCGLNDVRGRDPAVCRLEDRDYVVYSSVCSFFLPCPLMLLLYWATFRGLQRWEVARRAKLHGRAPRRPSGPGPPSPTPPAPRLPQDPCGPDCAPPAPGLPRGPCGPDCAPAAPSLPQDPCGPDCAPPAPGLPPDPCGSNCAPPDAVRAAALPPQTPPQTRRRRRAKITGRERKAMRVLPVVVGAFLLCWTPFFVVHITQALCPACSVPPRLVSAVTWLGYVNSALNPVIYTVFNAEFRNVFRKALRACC
Procedure: as §3, §4

[6] = target: T1, human 5-HT1A receptor; assay: Test 2: binding activity to human 5-HT1A receptor ([3H] 8-OH-DPAT); conditions: CHO cell membrane fraction, read-out: 5-HT1A binding affinity (Ki value)
Procedure: (§5) Test 2: Evaluation of Binding Activity to Human 5-HT1A Receptor, Human D4 Receptor, and Human D2 Receptor
(§6) CHO cell membrane fraction in which human 5-HT1A receptor, human D4 receptor, and human D2 receptor were expressed was purchased from PerkinElmer Co., Ltd. In the evaluation test of binding, the test compound dissolved in DMSO, each receptor membrane preparation diluted with buffer solution, and [3H] […] The nonspecific binding to each receptor was evaluated by a competition binding experiment in the presence of 10 μmol/L 8-OH-DPAT, 10 μmol/L dopamine, or 10 μmol/L spiperone, respectively.

[7] = target: T2, human D4 receptor; assay: Test 2: binding activity to human D4 receptor ([3H] dopamine); conditions: CHO cell membrane fraction, read-out: D4 binding affinity (Ki value)
Procedure: as §5, §6

[8] = target: human D2 receptor (Homo sapiens (Human), UniProt P14416); assay: Test 2: binding activity to human D2 receptor ([3H] spiperone); conditions: CHO cell membrane fraction, read-out: D2 binding affinity (Ki value)
Chain of human D2 receptor (P14416 whole entry): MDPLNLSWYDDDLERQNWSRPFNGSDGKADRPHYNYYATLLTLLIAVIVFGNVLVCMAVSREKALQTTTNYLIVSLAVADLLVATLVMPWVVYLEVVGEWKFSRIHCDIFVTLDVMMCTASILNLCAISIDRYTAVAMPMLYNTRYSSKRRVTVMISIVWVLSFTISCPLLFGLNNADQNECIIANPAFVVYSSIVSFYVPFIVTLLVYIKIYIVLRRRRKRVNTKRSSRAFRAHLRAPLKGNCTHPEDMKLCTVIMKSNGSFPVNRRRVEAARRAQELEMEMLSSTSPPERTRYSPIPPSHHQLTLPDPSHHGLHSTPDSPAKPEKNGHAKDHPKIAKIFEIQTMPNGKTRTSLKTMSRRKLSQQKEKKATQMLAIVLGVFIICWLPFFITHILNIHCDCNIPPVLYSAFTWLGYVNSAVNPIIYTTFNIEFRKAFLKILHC
Procedure: as §5, §6

[9] = target: hERG channel (Homo sapiens (Human), UniProt Q12809); assay: Test 5-2: activity for inhibiting hERG channel (whole-cell patch clamp, Qube); format: cell-based; conditions: hERG-CHO cell, auto patch clamp, read-out: hERG inhibition IC50
Chain of hERG channel (Q12809 whole entry): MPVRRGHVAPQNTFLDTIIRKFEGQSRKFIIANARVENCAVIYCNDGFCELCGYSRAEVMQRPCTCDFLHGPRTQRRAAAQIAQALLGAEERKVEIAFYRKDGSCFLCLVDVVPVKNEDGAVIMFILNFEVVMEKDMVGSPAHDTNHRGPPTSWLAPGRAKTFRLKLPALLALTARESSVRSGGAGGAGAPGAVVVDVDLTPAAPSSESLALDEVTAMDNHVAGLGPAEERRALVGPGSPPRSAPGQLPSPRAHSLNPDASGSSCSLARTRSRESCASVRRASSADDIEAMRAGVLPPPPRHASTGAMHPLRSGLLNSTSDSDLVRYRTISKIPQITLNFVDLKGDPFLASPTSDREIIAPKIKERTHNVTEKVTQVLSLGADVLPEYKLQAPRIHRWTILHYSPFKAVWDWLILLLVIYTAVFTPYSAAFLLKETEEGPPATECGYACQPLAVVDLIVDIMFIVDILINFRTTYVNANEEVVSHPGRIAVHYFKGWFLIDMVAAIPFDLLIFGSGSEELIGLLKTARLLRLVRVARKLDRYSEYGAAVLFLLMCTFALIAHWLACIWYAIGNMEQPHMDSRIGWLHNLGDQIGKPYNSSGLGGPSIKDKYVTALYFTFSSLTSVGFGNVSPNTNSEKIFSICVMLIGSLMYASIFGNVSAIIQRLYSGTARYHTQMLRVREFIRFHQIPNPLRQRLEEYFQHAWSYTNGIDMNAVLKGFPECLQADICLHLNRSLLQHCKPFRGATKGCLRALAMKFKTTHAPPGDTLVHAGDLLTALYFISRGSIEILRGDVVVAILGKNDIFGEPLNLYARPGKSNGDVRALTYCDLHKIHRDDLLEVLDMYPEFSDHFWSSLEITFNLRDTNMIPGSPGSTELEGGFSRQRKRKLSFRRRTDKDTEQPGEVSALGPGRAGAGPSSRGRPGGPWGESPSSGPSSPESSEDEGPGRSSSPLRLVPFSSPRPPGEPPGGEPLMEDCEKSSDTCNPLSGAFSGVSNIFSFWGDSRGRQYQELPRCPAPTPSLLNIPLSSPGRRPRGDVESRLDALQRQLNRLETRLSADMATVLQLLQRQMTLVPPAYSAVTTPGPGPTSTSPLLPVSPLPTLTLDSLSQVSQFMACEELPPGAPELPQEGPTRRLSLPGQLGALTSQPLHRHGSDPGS
Procedure: Test 5-2: Evaluation of Activity for Inhibiting hERG Channel
The activity of the present compound for inhibiting hERG channel was measured by whole-cell patch clamp method with auto patch clamp system, using CHO cell wherein hERG channel involved in human rapidly activating delayed rectifier potassium current (IKr) was forcibly expressed.
hERG-CHO cell purchased from ChanTest was incubated at 37° C. in a CO2 incubator, and the cell was exfoliated from the flask with trypsin to prepare a cell suspension, shortly before the hERG current measurement.
Extracellular fluid: 2 mmol/L CaCl2, 1 mmol/L MgCl2, 10 mmol/L HEPES, 4 mmol/L KCl, 145 mmol/L NaCl, 10 mmol/L glucose
Intracellular fluid: 10 mmol/L HEPES, 10 mmol/L EGTA, 20 mmol/L KCl, 130 mmol/L KF […]
The cell suspension, the extracellular fluid, the intracellular fluid, and the measurement plate were set in an auto patch clamp system, and the hERG current was measured by whole-cell patch clamp method. […] The test was carried out applying increscently 4 concentrations of each test compound, and the average of the peak tail currents that were obtained by the last 3 stimulations in each applied concentration was made to be the evaluated data. By using the current inhibition rate for the pre-applied current at each concentration of each test compound, IC50 value was calculated by Hill equation with the software.

[10] = CHO-K1, 100% = 10 μmol/L endogenous ligand
[11] = 100% = 10 μmol/L endogenous ligand

Metabolic stability of human liver microsome [1]	Structure (SMILES)	further results
0.073 mL/min/mg protein	O=C(NCCN1CCC(c2cccc(C(F)(F)F)n2)CC1)C1CCC(F)(F)CC1 [Example 1, 4,4-Difluoro-N-(2-{4-[6-(trifluoromethyl)pyridin-2-yl]piperidin-1-yl}ethyl)cyclohexane-carboxamide]	Metabolic stability of human liver microsome [2]: 0.031 mL/min/mg protein
<0.01 mL/min/mg protein	Cc1cccc(C2CCN(CCNC(=O)C3CC4CCC3O4)CC2)n1 (stereo not shown) [Example 3]	
<0.01 mL/min/mg protein	Cc1cccc(C2CCN(CCNC(=O)C3CCC(F)(F)CC3)CC2)n1 [Example 4]	
0.017 mL/min/mg protein	Cc1cccc(C2CCN(CCNC(=O)C3CCOCC3)CC2)n1 [Example 8, N-{2-[4-(6-Methylpyridin-2-yl)piperidin-1-yl]ethyl}-tetrahydro-2H-pyran-4-carboxamide]	Metabolic stability of human liver microsome [2]: 0.023 mL/min/mg protein
0.025 mL/min/mg protein	CC(C)(C)C(=O)NCCN1CCC(c2cccc(C(F)(F)F)n2)CC1 [Example 9, 2,2-dimethyl-N-(2-{4-[6-(trifluoromethyl)pyridin-2-yl]piperidin-1-yl}ethyl)propanamide]	Metabolic stability of human liver microsome [2]: 0.016 mL/min/mg protein
0.015 mL/min/mg protein	Cc1cccc(C2CCN(CCNC(=O)C(C)(C)C)CC2)n1 [Example 10]	
	O=C(NCCN1CCC(c2cccc(C(F)(F)F)n2)CC1)C1CCOCC1 [Example 11, N-(2-{4-[6-(Trifluoromethyl)pyridin-2-yl]piperidin-1-yl}ethyl)-tetrahydro-2H-pyran-4-carboxamide]	Metabolic stability of human liver microsome [2]: 0.0075 mL/min/mg protein; effect on serotonin content [3]: did not decrease the serotonin content
<0.05 mL/min/mg protein	Cc1cccc(C2CCN(CCNC(=O)C3CCCOC3)CC2)n1 (stereo not shown) [Example 15]	
<0.05 mL/min/mg protein	O=C(NCCN1CCC(c2cccc(C(F)(F)F)n2)CC1)[C@H]1C[C@@H]2CC[C@H]1O2 [Example 21]	
<0.05 mL/min/mg protein	O=C(NCCN1CCC(c2cccc(C(F)(F)F)n2)CC1)C1CCOC1 (stereo not shown) [Example 25]	5-HT1A agonistic activity Emax [4, 11]: 46%; EC50 [4]: 67 nM; D4 agonistic activity Emax [5, 11]: 49%; EC50 [5]: 30 nM; Ki [6]: 20 nM; Ki [8]: 3330 nM; IC50 [9]: > 10000 nM
<0.05 mL/min/mg protein	O=C(NCCN1CCC(c2cccc(OC(F)(F)F)n2)CC1)C1CCOCC1 [Example 28]	
<0.05 mL/min/mg protein	COc1cccc(C2CCN(CCNC(=O)C3CCOCC3)CC2)n1 [Example 33]	
<0.05 mL/min/mg protein	O=C(NCCN1CCC(c2cccc(C(F)F)n2)CC1)C1CCOCC1 [Example 34]	
<0.05 mL/min/mg protein	CN(C)c1cccc(C2CCN(CCNC(=O)C3CCOCC3)CC2)n1 [Example 38, N-(2-{4-[6-(Dimethylamino)pyridin-2-yl]piperidin-1-yl}ethyl)-tetrahydro-2H-pyran-4-carboxamide]	

Structure (SMILES)	Metabolic stability of human liver microsome [1]	further results
O=C(NCCN1CCC(c2cccc(C(F)(F)F)n2)CC1)C1CCCOC1 (stereo not shown) [Example 2]	0.069 mL/min/mg protein	
COCC(C)(C)C(=O)NCCN1CCC(c2cccc(C)n2)CC1 [Example 5]	<0.01 mL/min/mg protein	
COCC(C)(C)C(=O)NCCN1CCC(c2cccc(C(F)(F)F)n2)CC1 [Example 6]	<0.01 mL/min/mg protein	
Cc1cccc(C2=CCN(CCNC(=O)[C@H]3C[C@@H]4CC[C@H]3O4)CC2)n1 [Example 13]	<0.05 mL/min/mg protein	
Cc1cccc(C2=CCN(CCNC(=O)C3CCC(F)(F)CC3)CC2)n1 [Example 14]	0.084 mL/min/mg protein	
O=C(NCCN1CC=C(c2cccc(C(F)(F)F)n2)CC1)C1CCCOC1 (stereo not shown) [Example 16, N-{2-[6-(Trifluoromethyl)-3′,6′-dihydro[2,4′-bipyridin]-1′(2′H)-yl]ethyl}-tetrahydro-2H-pyran-3-carboxamide]	<0.05 mL/min/mg protein	
COCC(C)(C)C(=O)NCCN1CC=C(c2cccc(C(F)(F)F)n2)CC1 [Example 18]	<0.05 mL/min/mg protein	
Cc1cccc(C2CCN(CCNC(=O)C3CCCCO3)CC2)n1 (stereo not shown) [Example 20]	<0.05 mL/min/mg protein	Emax [4, 10]: 40%; EC50 [4]: 57 nM; Emax [5, 10]: 60%; EC50 [5]: 15 nM; Ki [6]: 6.8 nM; Ki [7]: 92 nM; Ki [8]: > 10000 nM; IC50 [9]: > 10000 nM
Cc1cccc(C2=CCN(CCNC(=O)C3CCOCC3)CC2)n1 [Example 29, N-[2-(6-Methyl-3′,6′-dihydro[2,4′-bipyridin]-1′(2′H)-yl)ethyl]-tetrahydro-2H-pyran-4-carboxamide]	<0.05 mL/min/mg protein	
CC(C)(C)C(=O)NCCN1CC=C(c2cccc(C(F)(F)F)n2)CC1 [Example 31, 2,2-Dimethyl-N-{2-[6-(trifluoromethyl)-3′,6′-dihydro[2,4′-bipyridin]-1′(2′H)-yl]ethyl}propanamide]	<0.05 mL/min/mg protein	

Source: patent US11014905B2, “2,6-disubstituted pyridine derivative” (Sumitomo Dainippon Pharma Co., Ltd., priority 2017, dated 2021)
